These are literature values, as cited in publication PMC3461336 (Biomacromolecules, 2012).

The structures appear in SMILES notation.

For this data set the following is noted: without dpA3.

As to `CC(=O)O[C@H]1C(=O)[C@@]2(C)[C@H]([C@H](OC(=O)c3ccccc3)[C@]3(O)C[C@H](OC(=O)[C@H](O)[C@@H](NC(=O)c4ccccc4)c4ccccc4)C(C)=C1C3(C)C)[C@]1(OC(C)=O)CO[C@@H]1C[C@@H]2O` [PAX, Paclitaxel], the “PAX solubility in aqueous solvents” value was below 0.1 µg/mL.
